Laboratory results: publication PMC10084949, “Peptide Variant Detection by a Living Yeast Biosensor via an Epitope-Selective Protease” (Biodesign Research, 2023)

Experiments:
ScSte2 = target: T1, ScSte2 (Saccharomyces cerevisiae, UniProt D6VTK4); test: cell-based; settings: SEM
T1 construct: we cloned codon-optimized open reading frames (ORFs) of all 5 proteases and GPCRs; expressed in transfected cells; host or cells: S. cerevisiae yTC391 (from yTC370, native STE2 deleted; pTDH3-ScSTE2 genome-integrated)
Experimental: (§1) Glycerol stocked strains were streaked out on YPD plate and incubated for 2 days. Three colonies were picked, replated on YPD plate, incubated for 1 day, and then stored at 4 °C. For activation assays, a small scoop of yeast patch from the 3 colonies was resuspended in ~4 ml of YPD medium and incubated overnight. Overnight cells were seeded at an optical density at 600 nm (OD600) of 0.15 (as measured in 96-well plate at 200-μl volume) in SC/Glc medium after washing twice with sterile Mili-Q H2O. GPCR activity and response to increasing concentrations of synthetic peptide ligands were measured in strains carrying appropriate genome-integrated components in 96-well microtiter plates in 200-μl total volume and cultured at 30 °C and 800 rpm, unless otherwise stated. All measurements were performed in biological triplicate. Culture turbidity (OD600) and fluorescence for ymTurquoise2 (excitation, 439 nm; emission, 475 nm; gain, 75) were measured after 0 and 8 h using an Infinite 200 Pro plate reader (Tecan). Dose–response curve was measured at 11 different concentrations of the appropriate synthetic peptide ligand with a constant dilution factor and a no-peptide, H2O control. The absorbance at 600 nm normalized fluorescence values and log10-transformed peptide concentrations were fit to a 4-parameter nonlinear regression model using Prism (GraphPad) to extract GPCR-specific values for basal activation, maximal activation, EC50, and the Hill coefficient.
(§2) Statistical tests of all experiments were performed using GraphPad Prism version 7 and are detailed within the legend of each figure. In all figures, the data points represent means ± SD of biological triplicates. Curves fitted to all dose–response data were fitted in Prism 7 using the nonlinear regression: variable slope (4-parameter) curve fitting.
(§3) Changes in EC50 and activation span (maximal fluorescence activation − basal fluorescence activation) due to difference in variant peptide sequences from the wild-type peptides are depicted as ΔlogEC50 from wild-type Pep (variant peptide logEC50 − wild-type peptide logEC50) and ΔSpan from wild-type Pep (variant peptide Span – wild-type peptide Span), respectively. Apparent shift in EC50 and change in activation span in both wild-type and variant peptides due to protease expression are depicted as ΔlogEC50 with protease (peptide logEC50 with protease − peptide logEC50 without protease) and ΔSpan with protease (peptide Span with protease − peptide Span without protease), respectively.

ScSte2 + ScBar1 = target: T2, ScSte2 + ScBar1 (Saccharomyces cerevisiae, UniProt D6VTK4); test: Dose-response activation of ScSte2 biosensor strain secreting ScBar1 (two copies, yBB01), fluorescent readout; type: cell-based; settings: SEM
T2 construct: we cloned codon-optimized open reading frames (ORFs) of all 5 proteases and GPCRs; expressed in transfected cells; host or cells: S. cerevisiae yBB01 (from yTC370; pTDH3-ScSTE2, two pCCW12-ScBAR1 cassettes, genome-integrated)
Experimental: as §1, §2, §3

T2 sequence (D6VTK4 whole entry): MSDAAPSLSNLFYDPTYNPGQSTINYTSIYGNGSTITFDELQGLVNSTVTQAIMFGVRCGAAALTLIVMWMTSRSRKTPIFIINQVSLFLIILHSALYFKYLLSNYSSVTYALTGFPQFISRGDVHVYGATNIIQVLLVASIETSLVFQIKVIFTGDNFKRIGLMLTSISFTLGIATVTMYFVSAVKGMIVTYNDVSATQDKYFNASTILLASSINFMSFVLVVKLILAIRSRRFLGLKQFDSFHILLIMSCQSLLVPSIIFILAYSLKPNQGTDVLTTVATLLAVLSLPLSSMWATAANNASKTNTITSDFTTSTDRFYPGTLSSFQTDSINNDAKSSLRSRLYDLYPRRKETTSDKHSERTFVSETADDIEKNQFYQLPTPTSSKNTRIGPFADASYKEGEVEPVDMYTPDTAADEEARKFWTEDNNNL
T1 sequence (D6VTK4 whole entry): as above

| Structure (SMILES) | EC50 (ScSte2) [nM] | EC50 (ScSte2 + ScBar1) [nM] |
| --- | --- | --- |
| CSCC[C@H](NC(=O)[C@@H]1CCCN1C(=O)[C@H](CCC(N)=O)NC(=O)CNC(=O)[C@@H]1CCCN1C(=O)[C@H](CCCCN)NC(=O)[C@H](C)NC(=O)[C@H](CCC(N)=O)NC(=O)[C@H](CC(C)C)NC(=O)[C@H](Cc1c[nH]c2ccccc12)NC(=O)[C@H](Cc1c[nH]cn1)NC(=O)[C@@H](N)Cc1c[nH]c2ccccc12)C(=O)N[C@@H](Cc1ccc(O)cc1)C(=O)O [ScPep6A] | 79.4 | 3160 |
| CSCC[C@H](NC(=O)[C@@H]1CCCN1C(=O)[C@H](CCC(N)=O)NC(=O)CNC(=O)[C@@H]1CCCN1C(=O)[C@H](CCCCN)NC(=O)[C@H](CC(C)C)NC(=O)[C@H](CCC(N)=O)NC(=O)[C@H](CC(C)C)NC(=O)[C@H](Cc1c[nH]c2ccccc12)NC(=O)[C@H](Cc1c[nH]cn1)NC(=O)[C@@H](N)Cc1c[nH]c2ccccc12)C(=O)N[C@@H](C)C(=O)O [ScPep13A] | 63.1 | 7940 |
| CSCC[C@H](NC(=O)[C@@H]1CCCN1C(=O)[C@H](CCC(N)=O)NC(=O)CNC(=O)[C@@H]1CCCN1C(=O)[C@H](CCCCN)NC(=O)[C@H](CC(C)C)NC(=O)[C@H](C)NC(=O)[C@H](CC(C)C)NC(=O)[C@H](Cc1c[nH]c2ccccc12)NC(=O)[C@H](Cc1c[nH]cn1)NC(=O)[C@@H](N)Cc1c[nH]c2ccccc12)C(=O)N[C@@H](Cc1ccc(O)cc1)C(=O)O [ScPep5A] | 50.1 | 501 |
| CSCC[C@H](NC(=O)[C@@H]1CCCN1C(=O)[C@H](CCC(N)=O)NC(=O)[C@H](C)NC(=O)[C@@H]1CCCN1C(=O)[C@H](CCCCN)NC(=O)[C@H](CC(C)C)NC(=O)[C@H](CCC(N)=O)NC(=O)[C@H](CC(C)C)NC(=O)[C@H](Cc1c[nH]c2ccccc12)NC(=O)[C@H](Cc1c[nH]cn1)NC(=O)[C@@H](N)Cc1c[nH]c2ccccc12)C(=O)N[C@@H](Cc1ccc(O)cc1)C(=O)O [ScPep9A] | 158 | 15800 |
| CSCC[C@H](NC(=O)[C@@H]1CCCN1C(=O)[C@H](CCC(N)=O)NC(=O)CNC(=O)[C@@H]1CCCN1C(=O)[C@H](CCCCN)NC(=O)[C@H](CC(C)C)NC(=O)[C@H](CCC(N)=O)NC(=O)[C@H](CC(C)C)NC(=O)[C@H](C)NC(=O)[C@H](Cc1c[nH]cn1)NC(=O)[C@@H](N)Cc1c[nH]c2ccccc12)C(=O)N[C@@H](Cc1ccc(O)cc1)C(=O)O [ScPep3A] | 63.1 | 25100 |
| CSCC[C@H](NC(=O)[C@@H]1CCCN1C(=O)[C@H](CCC(N)=O)NC(=O)CNC(=O)[C@@H]1CCCN1C(=O)[C@H](CCCCN)NC(=O)[C@H](CC(C)C)NC(=O)[C@H](CCC(N)=O)NC(=O)[C@H](CC(C)C)NC(=O)[C@H](Cc1c[nH]c2ccccc12)NC(=O)[C@H](C)NC(=O)[C@@H](N)Cc1c[nH]c2ccccc12)C(=O)N[C@@H](Cc1ccc(O)cc1)C(=O)O [ScPep2A] | 79.4 | 10000 |
| CSCC[C@H](NC(=O)[C@@H]1CCCN1C(=O)[C@H](CCC(N)=O)NC(=O)CNC(=O)[C@H](C)NC(=O)[C@H](CCCCN)NC(=O)[C@H](CC(C)C)NC(=O)[C@H](CCC(N)=O)NC(=O)[C@H](CC(C)C)NC(=O)[C@H](Cc1c[nH]c2ccccc12)NC(=O)[C@H](Cc1c[nH]cn1)NC(=O)[C@@H](N)Cc1c[nH]c2ccccc12)C(=O)N[C@@H](Cc1ccc(O)cc1)C(=O)O [ScPep8A] | 79.4 | 2510 |
| CC(C)C[C@H](NC(=O)[C@H](Cc1c[nH]c2ccccc12)NC(=O)[C@H](Cc1c[nH]cn1)NC(=O)[C@@H](N)Cc1c[nH]c2ccccc12)C(=O)N[C@@H](CCC(N)=O)C(=O)N[C@@H](CC(C)C)C(=O)N[C@@H](CCCCN)C(=O)N1CCC[C@H]1C(=O)NCC(=O)N[C@@H](CCC(N)=O)C(=O)N1CCC[C@H]1C(=O)N[C@@H](C)C(=O)N[C@@H](Cc1ccc(O)cc1)C(=O)O [ScPep12A] | 50.1 | 1000 |
| CSCC[C@H](NC(=O)[C@@H]1CCCN1C(=O)[C@H](CCC(N)=O)NC(=O)CNC(=O)[C@@H]1CCCN1C(=O)[C@H](C)NC(=O)[C@H](CC(C)C)NC(=O)[C@H](CCC(N)=O)NC(=O)[C@H](CC(C)C)NC(=O)[C@H](Cc1c[nH]c2ccccc12)NC(=O)[C@H](Cc1c[nH]cn1)NC(=O)[C@@H](N)Cc1c[nH]c2ccccc12)C(=O)N[C@@H](Cc1ccc(O)cc1)C(=O)O [ScPep7A] | 126 | 3980 |
| CSCC[C@H](NC(=O)[C@H](C)NC(=O)[C@H](CCC(N)=O)NC(=O)CNC(=O)[C@@H]1CCCN1C(=O)[C@H](CCCCN)NC(=O)[C@H](CC(C)C)NC(=O)[C@H](CCC(N)=O)NC(=O)[C@H](CC(C)C)NC(=O)[C@H](Cc1c[nH]c2ccccc12)NC(=O)[C@H](Cc1c[nH]cn1)NC(=O)[C@@H](N)Cc1c[nH]c2ccccc12)C(=O)N[C@@H](Cc1ccc(O)cc1)C(=O)O [ScPep11A] | 50.1 | 2510 |
| CSCC[C@H](NC(=O)[C@@H]1CCCN1C(=O)[C@H](C)NC(=O)CNC(=O)[C@@H]1CCCN1C(=O)[C@H](CCCCN)NC(=O)[C@H](CC(C)C)NC(=O)[C@H](CCC(N)=O)NC(=O)[C@H](CC(C)C)NC(=O)[C@H](Cc1c[nH]c2ccccc12)NC(=O)[C@H](Cc1c[nH]cn1)NC(=O)[C@@H](N)Cc1c[nH]c2ccccc12)C(=O)N[C@@H](Cc1ccc(O)cc1)C(=O)O [ScPep10A] | 126 | 6310 |
| CSCC[C@H](NC(=O)[C@@H]1CCCN1C(=O)[C@H](CCC(N)=O)NC(=O)CNC(=O)[C@@H]1CCCN1C(=O)[C@H](CCCCN)NC(=O)[C@H](CC(C)C)NC(=O)[C@H](CCC(N)=O)NC(=O)[C@H](C)NC(=O)[C@H](Cc1c[nH]c2ccccc12)NC(=O)[C@H](Cc1c[nH]cn1)NC(=O)[C@@H](N)Cc1c[nH]c2ccccc12)C(=O)N[C@@H](Cc1ccc(O)cc1)C(=O)O [ScPep4A] |  | 3980 |
| CSCC[C@H](NC(=O)[C@@H]1CCCN1C(=O)[C@H](CCC(N)=O)NC(=O)CNC(=O)[C@@H]1CCCN1C(=O)[C@H](CCCCN)NC(=O)[C@H](CC(C)C)NC(=O)[C@H](CCC(N)=O)NC(=O)[C@H](CC(C)C)NC(=O)[C@H](Cc1c[nH]c2ccccc12)NC(=O)[C@H](Cc1c[nH]cn1)NC(=O)[C@H](C)N)C(=O)N[C@@H](Cc1ccc(O)cc1)C(=O)O [ScPep1A] | 39.8 | 1260 |
